Laboratory results: the supplement of paper PMC12463676, “Small-molecule dissolution of stress granules by redox modulation benefits ALS models” (Nature Chemical Biology, 2025)

Compound: NC(=O)CCCCC1CCSS1 [lipoamide]
Assay: thermal stability z-score vs DMSO; higher = more thermally stabilized by treatment
Conditions: HeLa; lipoamide concentration 100 µM; arsenate co-treatment: none
Description: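 Cellular thermal proteome profiling in HeLa cells. Cells were treated with 100 µM lipoamide for 1 h, with or without 1 mM arsenate for a further 1 h, then heated to ten temperatures (37-66.3 °C), and soluble protein was quantified by TMT mass spectrometry relative to 0.1% DMSO controls. The thermal stability score (sum of log2 fold changes minus the abundance score) was transformed to a z-score; mean of n = 3 experiments.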
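Note: each temperature applied for 3 min, abundance score taken as mean log2 fold change at the two lowest temperatures, z-score obtained by mean subtraction and division by SD.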

UniProt P07996, sequence (P07996 whole entry, looked up): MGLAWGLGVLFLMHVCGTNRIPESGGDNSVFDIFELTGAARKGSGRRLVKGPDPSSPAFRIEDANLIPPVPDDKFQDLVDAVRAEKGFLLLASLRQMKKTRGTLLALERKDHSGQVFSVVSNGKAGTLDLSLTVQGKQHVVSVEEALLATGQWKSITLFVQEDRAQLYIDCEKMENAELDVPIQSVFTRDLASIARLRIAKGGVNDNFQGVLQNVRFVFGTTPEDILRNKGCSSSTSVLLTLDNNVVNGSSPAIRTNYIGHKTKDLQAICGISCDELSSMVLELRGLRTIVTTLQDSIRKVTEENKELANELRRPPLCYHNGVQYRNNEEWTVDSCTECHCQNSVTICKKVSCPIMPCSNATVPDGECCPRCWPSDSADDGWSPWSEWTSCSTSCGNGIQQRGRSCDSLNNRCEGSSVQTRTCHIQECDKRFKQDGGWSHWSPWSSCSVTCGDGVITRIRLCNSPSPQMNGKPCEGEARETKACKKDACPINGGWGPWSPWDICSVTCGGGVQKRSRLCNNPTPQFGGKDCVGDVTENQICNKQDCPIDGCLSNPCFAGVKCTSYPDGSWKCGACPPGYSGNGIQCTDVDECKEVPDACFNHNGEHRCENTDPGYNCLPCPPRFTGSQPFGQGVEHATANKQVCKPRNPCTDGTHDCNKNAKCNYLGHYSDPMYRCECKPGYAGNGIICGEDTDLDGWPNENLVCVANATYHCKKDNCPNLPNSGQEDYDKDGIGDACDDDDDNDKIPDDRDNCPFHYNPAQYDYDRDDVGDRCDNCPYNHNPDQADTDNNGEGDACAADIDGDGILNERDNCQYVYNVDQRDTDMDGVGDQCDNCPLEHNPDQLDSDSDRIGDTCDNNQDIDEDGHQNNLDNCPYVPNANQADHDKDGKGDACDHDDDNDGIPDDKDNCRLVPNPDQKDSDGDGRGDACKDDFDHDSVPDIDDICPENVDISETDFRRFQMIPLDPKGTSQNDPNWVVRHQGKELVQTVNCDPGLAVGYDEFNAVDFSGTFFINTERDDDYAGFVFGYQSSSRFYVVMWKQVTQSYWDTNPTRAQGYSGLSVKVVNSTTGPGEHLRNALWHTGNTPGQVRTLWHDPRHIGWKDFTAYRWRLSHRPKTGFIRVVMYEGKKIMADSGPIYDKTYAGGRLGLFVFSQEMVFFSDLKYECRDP
UniProt Q99933, sequence (Q99933 whole entry): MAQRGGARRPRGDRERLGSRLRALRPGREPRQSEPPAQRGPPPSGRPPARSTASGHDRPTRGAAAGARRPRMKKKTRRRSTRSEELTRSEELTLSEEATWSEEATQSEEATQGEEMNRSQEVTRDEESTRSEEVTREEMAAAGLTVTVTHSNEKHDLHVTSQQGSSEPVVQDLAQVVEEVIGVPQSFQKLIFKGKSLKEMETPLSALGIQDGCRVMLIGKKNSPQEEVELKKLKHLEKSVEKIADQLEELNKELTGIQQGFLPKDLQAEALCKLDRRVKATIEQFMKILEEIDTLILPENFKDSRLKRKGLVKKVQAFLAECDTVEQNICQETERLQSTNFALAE
UniProt Q8IUX1, sequence (Q8IUX1 whole entry): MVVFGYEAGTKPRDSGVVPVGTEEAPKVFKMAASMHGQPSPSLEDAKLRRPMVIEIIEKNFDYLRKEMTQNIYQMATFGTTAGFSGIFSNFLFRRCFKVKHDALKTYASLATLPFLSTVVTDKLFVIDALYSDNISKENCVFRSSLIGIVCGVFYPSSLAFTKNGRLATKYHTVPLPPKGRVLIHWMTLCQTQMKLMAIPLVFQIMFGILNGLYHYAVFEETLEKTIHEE
UniProt Q15311, sequence (Q15311 whole entry): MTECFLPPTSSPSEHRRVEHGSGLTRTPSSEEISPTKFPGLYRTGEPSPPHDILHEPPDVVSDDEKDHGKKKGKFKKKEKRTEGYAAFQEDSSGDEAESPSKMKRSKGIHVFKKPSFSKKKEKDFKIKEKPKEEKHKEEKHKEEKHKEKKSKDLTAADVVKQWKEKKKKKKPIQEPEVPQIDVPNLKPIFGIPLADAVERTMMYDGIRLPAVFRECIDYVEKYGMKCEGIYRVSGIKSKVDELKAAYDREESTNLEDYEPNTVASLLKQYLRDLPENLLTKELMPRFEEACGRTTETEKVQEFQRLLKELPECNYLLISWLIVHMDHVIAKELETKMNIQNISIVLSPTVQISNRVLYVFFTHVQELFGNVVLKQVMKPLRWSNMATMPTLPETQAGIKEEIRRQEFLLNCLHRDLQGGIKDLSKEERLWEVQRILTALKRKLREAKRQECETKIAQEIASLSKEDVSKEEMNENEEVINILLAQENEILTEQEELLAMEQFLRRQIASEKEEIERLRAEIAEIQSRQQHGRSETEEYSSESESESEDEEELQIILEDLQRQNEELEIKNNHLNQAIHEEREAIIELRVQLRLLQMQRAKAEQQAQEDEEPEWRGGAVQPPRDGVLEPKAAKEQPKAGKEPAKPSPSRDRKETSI
UniProt Q9BXK5, sequence (Q9BXK5 whole entry): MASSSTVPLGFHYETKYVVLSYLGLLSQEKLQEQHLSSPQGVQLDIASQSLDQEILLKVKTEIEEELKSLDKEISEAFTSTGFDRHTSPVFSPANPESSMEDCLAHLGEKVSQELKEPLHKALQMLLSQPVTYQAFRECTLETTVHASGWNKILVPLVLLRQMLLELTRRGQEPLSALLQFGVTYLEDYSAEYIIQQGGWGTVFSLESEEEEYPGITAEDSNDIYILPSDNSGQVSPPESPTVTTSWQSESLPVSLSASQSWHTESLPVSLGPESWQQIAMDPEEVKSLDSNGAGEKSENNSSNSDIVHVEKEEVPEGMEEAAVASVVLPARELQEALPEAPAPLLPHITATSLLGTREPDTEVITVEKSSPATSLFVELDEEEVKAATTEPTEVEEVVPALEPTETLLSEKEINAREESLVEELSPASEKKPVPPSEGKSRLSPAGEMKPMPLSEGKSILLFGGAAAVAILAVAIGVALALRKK
UniProt Q9NQZ5, sequence (Q9NQZ5 whole entry): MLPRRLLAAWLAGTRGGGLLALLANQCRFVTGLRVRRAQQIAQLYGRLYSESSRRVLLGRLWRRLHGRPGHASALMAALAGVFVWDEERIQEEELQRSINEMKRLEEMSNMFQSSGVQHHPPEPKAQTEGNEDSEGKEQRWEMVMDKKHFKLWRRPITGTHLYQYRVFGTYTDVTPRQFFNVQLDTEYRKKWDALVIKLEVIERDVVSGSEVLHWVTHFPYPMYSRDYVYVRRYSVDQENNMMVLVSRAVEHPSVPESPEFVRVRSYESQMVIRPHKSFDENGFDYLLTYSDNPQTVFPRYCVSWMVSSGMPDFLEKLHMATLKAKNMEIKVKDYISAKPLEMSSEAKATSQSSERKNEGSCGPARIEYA
UniProt P29590, sequence (P29590 whole entry): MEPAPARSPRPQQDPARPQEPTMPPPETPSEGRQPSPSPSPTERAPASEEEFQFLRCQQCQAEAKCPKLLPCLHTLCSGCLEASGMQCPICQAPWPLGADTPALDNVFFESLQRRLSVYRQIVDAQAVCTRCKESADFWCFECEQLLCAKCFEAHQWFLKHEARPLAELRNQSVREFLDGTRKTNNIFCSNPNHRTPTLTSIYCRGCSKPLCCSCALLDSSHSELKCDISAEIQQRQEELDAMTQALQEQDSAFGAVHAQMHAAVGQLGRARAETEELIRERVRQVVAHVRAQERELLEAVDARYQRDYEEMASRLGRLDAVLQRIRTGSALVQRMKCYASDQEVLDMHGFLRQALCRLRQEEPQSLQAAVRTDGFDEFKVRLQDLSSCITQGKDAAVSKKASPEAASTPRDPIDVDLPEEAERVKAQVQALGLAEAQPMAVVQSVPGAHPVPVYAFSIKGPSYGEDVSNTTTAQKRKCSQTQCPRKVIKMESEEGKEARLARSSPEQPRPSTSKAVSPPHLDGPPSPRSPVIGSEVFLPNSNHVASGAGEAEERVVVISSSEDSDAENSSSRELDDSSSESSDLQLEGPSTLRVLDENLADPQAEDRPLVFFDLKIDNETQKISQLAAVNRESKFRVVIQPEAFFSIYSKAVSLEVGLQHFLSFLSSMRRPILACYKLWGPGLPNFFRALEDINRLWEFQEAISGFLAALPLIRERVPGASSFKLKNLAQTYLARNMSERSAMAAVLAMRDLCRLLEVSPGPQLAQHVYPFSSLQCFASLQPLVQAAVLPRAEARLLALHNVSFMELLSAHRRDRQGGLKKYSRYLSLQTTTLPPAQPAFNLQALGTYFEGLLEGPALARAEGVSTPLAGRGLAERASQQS
UniProt O75030, sequence (O75030 whole entry): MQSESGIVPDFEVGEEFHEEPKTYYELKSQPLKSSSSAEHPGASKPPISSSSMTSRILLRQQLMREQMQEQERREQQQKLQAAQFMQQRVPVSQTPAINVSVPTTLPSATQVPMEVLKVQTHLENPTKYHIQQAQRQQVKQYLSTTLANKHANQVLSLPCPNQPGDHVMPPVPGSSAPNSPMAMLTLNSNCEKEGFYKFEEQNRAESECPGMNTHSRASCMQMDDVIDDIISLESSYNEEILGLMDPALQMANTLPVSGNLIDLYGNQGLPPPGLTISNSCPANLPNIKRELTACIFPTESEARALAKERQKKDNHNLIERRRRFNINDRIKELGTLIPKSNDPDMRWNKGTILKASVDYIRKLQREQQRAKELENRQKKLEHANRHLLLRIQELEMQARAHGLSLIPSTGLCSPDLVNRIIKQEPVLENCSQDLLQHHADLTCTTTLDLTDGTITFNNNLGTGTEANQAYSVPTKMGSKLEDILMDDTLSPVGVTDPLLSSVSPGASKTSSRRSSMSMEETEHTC
UniProt P16152, sequence (P16152 whole entry): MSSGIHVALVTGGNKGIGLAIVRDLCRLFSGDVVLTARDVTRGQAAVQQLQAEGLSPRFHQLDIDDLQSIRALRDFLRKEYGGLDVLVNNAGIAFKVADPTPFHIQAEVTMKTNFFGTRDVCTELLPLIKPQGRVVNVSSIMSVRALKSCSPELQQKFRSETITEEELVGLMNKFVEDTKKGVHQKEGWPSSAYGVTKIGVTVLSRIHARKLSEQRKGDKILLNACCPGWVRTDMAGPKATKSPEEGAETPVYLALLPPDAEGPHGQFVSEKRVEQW

Target | thermal stability z-score
EHD1 (UniProt Q9H4M9) | 0.13
THBS1 (UniProt P07996) | -0.841
STARD7 (UniProt Q9NQZ5) | 1.42
ATG7 (UniProt O95352) | 0.291
ODR4 (UniProt Q5SWX8) | 0.112
BCL2L13 (UniProt Q9BXK5) | 0.206
TMEM126B (UniProt Q8IUX1) | 1.36
ATXN2 (UniProt Q99700) | 0.133
BRD3 (UniProt Q15059) | -0.107
GUK1 (UniProt Q16774) | 0.714
CBR1 (UniProt P16152) | 0.208
ARL6IP5 (UniProt O75915) | 0.285
TMEM245 (UniProt Q9H330) | 0.28
PML (UniProt P29590) | 0.537
CHD3 (UniProt Q12873) | -0.131
BMS1 (UniProt Q14692) | 0.482
ARIH2 (UniProt O95376) | -0.216
ZC3H15 (UniProt Q8WU90) | -0.0996

Target | thermal stability z-score
VCL (UniProt P18206) | -0.286
USP6NL (UniProt Q92738) | -0.0598
MITF (UniProt O75030) | -0.377
CD63 (UniProt P08962) | 0.402
CCDC174 (UniProt Q6PII3) | -0.734
RPL35 (UniProt P42766) | 0.674
MKRN2 (UniProt Q9H000) | 0.829
BAG1 (UniProt Q99933) | 0.0085
ATP7A (UniProt Q04656) | -0.175
NOL3 (UniProt O60936) | 0.549
PLOD2 (UniProt O00469) | -3.35
RALBP1 (UniProt Q15311) | 0.055
UCHL3 (UniProt P15374) | 0.126
PIGO (UniProt Q8TEQ8) | -1.1
MAN2A1 (UniProt Q16706) | -0.428
ALDH5A1 (UniProt P51649) | -0.136
RPA2 (UniProt P15927) | -0.662
LRRFIP1 (UniProt Q32MZ4) | 0.475

Compound: O=[As]([O-])(O)O.[K+] [potassium arsenate]
Assay: as above
Conditions: HeLa; arsenate concentration 1 mM
Description: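 Cellular thermal proteome profiling in HeLa cells treated with 1 mM arsenate for 1 h (DMSO pretreatment), heated to ten temperatures (37-66.3 °C). Soluble protein was quantified by TMT mass spectrometry relative to DMSO controls; the thermal stability score was transformed to a z-score; mean of n = 3 experiments.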

Target | thermal stability z-score
MRPS33 (UniProt Q9Y291) | 0.00906
ZCCHC8 (UniProt Q6NZY4) | -0.318
NPEPPS (UniProt P55786) | 0.725
GDAP2 (UniProt Q9NXN4) | -0.255
PACS1 (UniProt Q6VY07) | 0.404
CAPN7 (UniProt Q9Y6W3) | 0.922
TACC3 (UniProt Q9Y6A5) | 0.662
GALNT7 (UniProt Q86SF2) | 0.187
LMAN1 (UniProt P49257) | 0.757
HPS6 (UniProt Q86YV9) | -0.0451
HEXIM1 (UniProt O94992) | 0.384
WDR41 (UniProt Q9HAD4) | -0.285
HEATR5A (UniProt Q86XA9) | 0.782
BLVRA (UniProt P53004) | -0.0313
CDC5L (UniProt Q99459) | -0.167
NDUFAF7 (UniProt Q7L592) | 0.288
NBEAL2 (UniProt Q6ZNJ1) | 0.0522
FAM73A (UniProt Q8NAN2) | 0.164
TACC1 (UniProt O75410) | 0.526
RECQL (UniProt P46063) | -1.22
SETD1A (UniProt O15047) | -0.413
UBE4B (UniProt O95155) | 0.599
NR4A1 (UniProt P22736) | 0.179
SPAG7 (UniProt O75391) | -0.214

Target | thermal stability z-score
ITPR2 (UniProt Q14571) | -0.238
PC (UniProt P11498) | -0.574
SNAPIN (UniProt O95295) | 0.267
DENND6A (UniProt Q8IWF6) | -0.387
CINP (UniProt Q9BW66) | 0.256
GRSF1 (UniProt Q12849) | 0.26
MIS12 (UniProt Q9H081) | 0.00203
FIGNL1 (UniProt Q6PIW4) | -1
PHLPP1 (UniProt O60346) | -0.061
OBSL1 (UniProt O75147) | -0.307
NHS (UniProt Q6T4R5) | -0.851
EHD1 (UniProt Q9H4M9) | -0.0304
THBS1 (UniProt P07996) | -0.825
STARD7 (UniProt Q9NQZ5) | 1.07
ATG7 (UniProt O95352) | 0.16
ODR4 (UniProt Q5SWX8) | 0.137
BCL2L13 (UniProt Q9BXK5) | 0.655
TMEM126B (UniProt Q8IUX1) | 1.18
ATXN2 (UniProt Q99700) | -0.245
BRD3 (UniProt Q15059) | -0.279
GUK1 (UniProt Q16774) | 0.29
CBR1 (UniProt P16152) | 0.879
ARL6IP5 (UniProt O75915) | -0.256
TMEM245 (UniProt Q9H330) | 1.86

Target | thermal stability z-score
PML (UniProt P29590) | 5.01
CHD3 (UniProt Q12873) | -0.306
BMS1 (UniProt Q14692) | 0.723
ARIH2 (UniProt O95376) | -0.521
ZC3H15 (UniProt Q8WU90) | 0.0266
VCL (UniProt P18206) | -2.02
USP6NL (UniProt Q92738) | 0.0467
MITF (UniProt O75030) | 0.297
CD63 (UniProt P08962) | 0.0332
CCDC174 (UniProt Q6PII3) | -0.984
RPL35 (UniProt P42766) | -0.812
MKRN2 (UniProt Q9H000) | -0.0571
BAG1 (UniProt Q99933) | -0.464
ATP7A (UniProt Q04656) | -0.674
NOL3 (UniProt O60936) | 0.236
PLOD2 (UniProt O00469) | 0.877
RALBP1 (UniProt Q15311) | 0.00922
UCHL3 (UniProt P15374) | -0.0572
PIGO (UniProt Q8TEQ8) | -0.779
MAN2A1 (UniProt Q16706) | -0.264
ALDH5A1 (UniProt P51649) | 0.302
RPA2 (UniProt P15927) | 0.659
LRRFIP1 (UniProt Q32MZ4) | 0.228
